Results from patent US20060084064A1, “Endocan compositions and methods for the treatment of neoplasms” (priority 2003, published 2006).

Legend:
endocan mRNA in HUVECs = test: Endocan mRNA expression in serum-starved HUVECs (Northern blot); assay type: cell-based, human; settings: for Inhibition of endocan induction by VEGF / Inhibition of endocan induction by tumor cell-conditioned medium: HUVECs preincubated 30 minutes with 5 μM BIM; for Inhibition of endocan induction by VEGF: 20 μM LY294002, 50 μM PD98059 or 20 μM SU1498 before 6 hour treatment with 20 ng/ml VEGF, FIGS. 3G; for Inhibition of endocan induction by VEGF / Effect of growth factor addition on endocan mRNA: 3I; for Inhibition of endocan induction by tumor cell-conditioned medium: 20 μM LY294002 or 50 μM PD98059 before 6 hour treatment, FIG. 3H; for Effect of growth factor addition on endocan mRNA: growth factor added to serum-starved HUVECs, FIGS. 3D-3F
Protocol: Human non-small lung cancer cells (NCI-H1437, ATCC (American Type Culture Collection) CRL-5872) and rat glioma cells (C6, ATCC CCL-107) were grown in DMEM (Life Technologies Inc., Gaithersburg, Md.) containing 10% FBS (Life Technologies Inc.). Human renal cell carcinoma cells (786-0, ATCC CRL-1932) were maintained in RPMI 1640 (Life Technologies Inc.) containing 10% FBS. HUVECs, human epidermal keratinocytes and human renal tubule epithelial cells were obtained from Clonetics (San Diego, Calif.) and grown in EGM-2-MV, KGM and REGM, respectively (Clonetics). All cells were maintained at 37° C. under 5% CO2 in humidified air. Endothelial cells were grown to 90% confluence, serum-starved overnight in EBM-2 medium containing 0.5% FBS and incubated in the absence or presence of tumor cell-conditioned medium or growth factors at the doses and for the times indicated. Unless otherwise stated, endothelial cells were incubated with 20 ng/ml VEGF for 6 hours. In inhibition studies, serum-starved endothelial cells were preincubated with 5 μM BIM, 20 μM LY294002, 50 μM PD98059, or 20 μM SU1498 for 30 minutes before a 6 hour treatment with tumor conditional medium or VEGF. For neutralization studies, tumor conditional medium or growth factors were preincubated with antibodies for 1 hour at 37° C. and the mixture was then added to serum-starved HUVECs.
Cultured cells and tissues were harvested for total RNA extraction, using the Trizol reagent (Life Technologies). Five μg total RNA from cells or 10 μg RNA from tissues were loaded on a 0.7% formaldehyde-containing agarose gel. The RNA was transferred to nylon membrane, covalently cross-linked by UV radiation, prehybridized for 6 hours, and hybridized for 18 hours at 42° C. with 10^6 cpm/ml [^32P] dCTP-labeled human endocan, mouse endocan, mouse vWF, or mouse VEGF cDNA probe.

Flk-1 kinase = settings: selective inhibitor of Flk-1 kinase, obtained from Calbiochem; cited from earlier work
Flt-1 in HUVECs = settings: VEGF added to HUVECs; Wang et al. 2000; cited from earlier work

For CN(C)CCCn1cc(C2=C(c3c[nH]c4ccccc34)C(=O)NC2=O)c2ccccc21 [BIM, Bisindolylmaleimide I], the “Inhibition of endocan induction by VEGF” value (endocan mRNA in HUVECs) was “completely inhibited” and the “Inhibition of endocan induction by tumor cell-conditioned medium” value (endocan mRNA in HUVECs) was “completely inhibited”.

For COc1cccc(-c2cc(=O)c3ccccc3o2)c1N [PD90985], the “Inhibition of endocan induction by tumor cell-conditioned medium” value (endocan mRNA in HUVECs) was “not”.

In the case of CC(C)c1cc(/C=C(\C#N)C(=O)NCCCc2ccccc2)cc(C(C)C)c1O [SU1498], the “Inhibition of endocan induction by VEGF” value (endocan mRNA in HUVECs) is listed as “blocked” and the IC50 (Flk-1 kinase) is listed as 700 nM.

For VEGF, the “Effect of growth factor addition on endocan mRNA” value (endocan mRNA in HUVECs) is given as “time and dose dependent increase”, the “Cell surface expression of Flt-1” value (Flt-1 in HUVECs) is given as “reduced” and the “Flt-1 mRNA” value (Flt-1 in HUVECs) is given as “increased”.

B1: placenta growth factor (PlGF): Recombinant human placenta growth factor purchased from R&D Systems (protein, UniProt P49763 19-221, looked up)
Placenta growth factor: LPAVPPQQWALSAGNGSSEVEVVPFQEVWGRSYCRALERLVDVVSEYPSEVEHMFSPSCVSLLRCTGCCGDENLHCVPVETANVTMQLLKIRSGDRPSYVELTFSQHVRCECRHSPGRQSPDMPGDFRADAPSFLPPRRSLPMLFRMEWGCALTGSQSAVWPSSPVPEEIPRMHPGRNGKKQQRKPLREKMKPERCGDAVPRR
With B1 the “Effect of growth factor addition on endocan mRNA” value (endocan mRNA in HUVECs) was “did not alter”.
